# How the values were obtained:
# CYP3A4 = target: T1, CYP3A4 (Homo sapiens, UniProt P08684); assay: CYP3A4 inhibition in Saccharosomes; type: biochemical
# T1 construct: host or cells: yeast microsomes (Saccharosomes)
# Description: (§1) Example 25. IC50 determination for best compound against CYP1A1, CYP1B1 and other CYPs in Saccharosomes. Compounds were serially diluted to six different concentrations with 10% DMSO in a Sero-Well white microplate. The experiment was performed in a similar way as described above in examples 23 and 24.
# CYP1B1 = target: T2, CYP1B1 (Homo sapiens, UniProt Q16678); assay: CYP1B1 inhibition in live human cells (HEK293); type: cell-based
# T2 sequence (Q16678 1-543): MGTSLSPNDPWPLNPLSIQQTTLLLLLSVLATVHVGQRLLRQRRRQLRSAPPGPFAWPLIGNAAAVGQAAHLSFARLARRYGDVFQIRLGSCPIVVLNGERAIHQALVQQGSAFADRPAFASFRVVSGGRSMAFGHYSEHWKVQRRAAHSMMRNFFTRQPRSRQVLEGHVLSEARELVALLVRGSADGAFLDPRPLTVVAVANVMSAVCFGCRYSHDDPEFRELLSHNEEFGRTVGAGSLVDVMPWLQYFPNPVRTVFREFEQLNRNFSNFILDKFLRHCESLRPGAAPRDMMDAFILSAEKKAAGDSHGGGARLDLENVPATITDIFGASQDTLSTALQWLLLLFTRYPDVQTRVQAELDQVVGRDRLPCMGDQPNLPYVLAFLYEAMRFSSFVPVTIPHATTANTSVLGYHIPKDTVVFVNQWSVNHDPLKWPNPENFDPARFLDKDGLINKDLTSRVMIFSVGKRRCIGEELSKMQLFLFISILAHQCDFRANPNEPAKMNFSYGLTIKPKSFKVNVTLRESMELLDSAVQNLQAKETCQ
# CYP2A6 = target: T3, CYP2A6 (Homo sapiens, UniProt P11509); assay: CYP2A6 inhibition in Saccharosomes; type: biochemical
# T3 construct: host or cells: yeast microsomes (Saccharosomes)
# T3 sequence (P11509 1-494): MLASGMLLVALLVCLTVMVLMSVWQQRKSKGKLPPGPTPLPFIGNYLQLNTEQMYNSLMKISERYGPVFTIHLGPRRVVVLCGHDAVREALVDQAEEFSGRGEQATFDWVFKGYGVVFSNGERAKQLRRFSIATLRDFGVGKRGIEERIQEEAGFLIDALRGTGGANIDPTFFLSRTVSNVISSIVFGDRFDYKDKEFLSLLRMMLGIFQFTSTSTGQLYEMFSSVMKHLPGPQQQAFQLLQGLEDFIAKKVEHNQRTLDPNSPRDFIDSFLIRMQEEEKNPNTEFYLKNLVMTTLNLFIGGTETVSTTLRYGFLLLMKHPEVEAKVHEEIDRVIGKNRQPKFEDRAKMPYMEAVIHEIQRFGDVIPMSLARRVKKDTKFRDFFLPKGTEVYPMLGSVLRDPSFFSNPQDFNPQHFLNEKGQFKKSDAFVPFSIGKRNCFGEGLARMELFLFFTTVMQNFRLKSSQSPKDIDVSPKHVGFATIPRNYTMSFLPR
# Description: as §1
# CYP2C8 = target: T4, CYP2C8 (Homo sapiens, UniProt P10632); assay: CYP2C8 inhibition in Saccharosomes; type: biochemical; settings: Saccharosomes containing CYP2C8
# T4 construct: host or cells: yeast microsomes (Saccharosomes)
# T4 sequence (P10632 1-490): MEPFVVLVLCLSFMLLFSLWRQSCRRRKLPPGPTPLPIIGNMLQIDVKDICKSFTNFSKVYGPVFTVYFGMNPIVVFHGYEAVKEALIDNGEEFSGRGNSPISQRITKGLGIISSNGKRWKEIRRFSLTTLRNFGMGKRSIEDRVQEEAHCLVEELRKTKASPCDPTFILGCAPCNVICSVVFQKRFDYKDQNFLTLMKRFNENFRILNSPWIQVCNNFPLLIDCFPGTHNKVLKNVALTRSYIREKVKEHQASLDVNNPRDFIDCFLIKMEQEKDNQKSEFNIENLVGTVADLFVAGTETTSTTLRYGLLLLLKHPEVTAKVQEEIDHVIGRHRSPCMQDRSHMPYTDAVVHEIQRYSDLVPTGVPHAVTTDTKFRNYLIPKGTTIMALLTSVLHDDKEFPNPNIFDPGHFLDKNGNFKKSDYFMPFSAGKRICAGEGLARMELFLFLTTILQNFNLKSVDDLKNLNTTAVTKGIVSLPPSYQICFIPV
# CYP1A2 = target: T5, CYP1A2 (Homo sapiens, UniProt P05177); assay: CYP1A2 inhibition in Saccharosomes; type: biochemical
# T5 construct: host or cells: yeast microsomes (Saccharosomes)
# T5 sequence (P05177 1-516): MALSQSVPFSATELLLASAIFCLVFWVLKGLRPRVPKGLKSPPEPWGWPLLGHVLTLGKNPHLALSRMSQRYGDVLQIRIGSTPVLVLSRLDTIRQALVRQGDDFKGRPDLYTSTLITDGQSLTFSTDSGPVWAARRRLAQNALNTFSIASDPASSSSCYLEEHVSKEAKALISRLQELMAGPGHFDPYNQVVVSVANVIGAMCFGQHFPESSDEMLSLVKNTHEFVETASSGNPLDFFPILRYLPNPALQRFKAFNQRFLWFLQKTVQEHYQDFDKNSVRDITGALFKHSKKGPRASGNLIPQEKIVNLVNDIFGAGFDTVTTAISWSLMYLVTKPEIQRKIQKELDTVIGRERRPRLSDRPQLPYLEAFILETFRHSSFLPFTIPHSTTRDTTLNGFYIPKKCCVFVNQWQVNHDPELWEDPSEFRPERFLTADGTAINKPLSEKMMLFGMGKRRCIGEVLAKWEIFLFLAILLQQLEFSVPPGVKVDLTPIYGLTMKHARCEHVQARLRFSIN
# Description: as §1
# CYP2D6 = target: T6, CYP2D6 (Homo sapiens, UniProt P10635); assay: CYP2D6 inhibition in Saccharosomes; type: biochemical
# T6 construct: host or cells: yeast microsomes (Saccharosomes)
# T6 sequence (P10635 whole entry): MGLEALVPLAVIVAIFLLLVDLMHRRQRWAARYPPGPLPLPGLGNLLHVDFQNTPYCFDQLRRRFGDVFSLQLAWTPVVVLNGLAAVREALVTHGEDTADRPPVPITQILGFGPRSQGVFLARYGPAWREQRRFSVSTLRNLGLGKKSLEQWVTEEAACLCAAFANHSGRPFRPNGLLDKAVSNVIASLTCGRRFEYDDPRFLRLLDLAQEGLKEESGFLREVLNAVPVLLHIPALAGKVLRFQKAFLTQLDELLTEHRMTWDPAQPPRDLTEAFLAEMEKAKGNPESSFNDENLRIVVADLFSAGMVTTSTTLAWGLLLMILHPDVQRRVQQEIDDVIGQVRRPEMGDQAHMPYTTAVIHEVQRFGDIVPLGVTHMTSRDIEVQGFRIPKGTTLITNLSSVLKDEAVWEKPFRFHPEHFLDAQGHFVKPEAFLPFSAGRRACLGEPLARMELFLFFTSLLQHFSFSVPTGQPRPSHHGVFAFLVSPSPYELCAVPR
# Description: as §1
# CYP2B6 = target: T7, CYP2B6 (Homo sapiens, UniProt P20813); assay: CYP2B6 inhibition in Saccharosomes; type: biochemical; settings: Saccharosomes containing CYP2B6
# T7 construct: host or cells: yeast microsomes (Saccharosomes)
# T7 sequence (P20813 1-491): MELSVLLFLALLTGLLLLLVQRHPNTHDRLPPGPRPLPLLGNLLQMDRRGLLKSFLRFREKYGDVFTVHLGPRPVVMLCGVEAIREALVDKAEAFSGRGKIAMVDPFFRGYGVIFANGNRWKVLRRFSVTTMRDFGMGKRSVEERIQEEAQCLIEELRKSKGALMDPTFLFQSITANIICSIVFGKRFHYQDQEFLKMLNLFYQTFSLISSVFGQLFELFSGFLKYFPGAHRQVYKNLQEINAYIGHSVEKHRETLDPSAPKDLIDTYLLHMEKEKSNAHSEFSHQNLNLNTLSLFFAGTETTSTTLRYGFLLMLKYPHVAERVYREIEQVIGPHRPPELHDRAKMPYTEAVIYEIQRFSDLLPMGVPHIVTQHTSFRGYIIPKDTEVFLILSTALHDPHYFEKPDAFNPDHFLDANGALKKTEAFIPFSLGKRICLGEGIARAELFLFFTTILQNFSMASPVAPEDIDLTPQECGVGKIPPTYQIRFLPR
# T1 sequence (P08684 whole entry): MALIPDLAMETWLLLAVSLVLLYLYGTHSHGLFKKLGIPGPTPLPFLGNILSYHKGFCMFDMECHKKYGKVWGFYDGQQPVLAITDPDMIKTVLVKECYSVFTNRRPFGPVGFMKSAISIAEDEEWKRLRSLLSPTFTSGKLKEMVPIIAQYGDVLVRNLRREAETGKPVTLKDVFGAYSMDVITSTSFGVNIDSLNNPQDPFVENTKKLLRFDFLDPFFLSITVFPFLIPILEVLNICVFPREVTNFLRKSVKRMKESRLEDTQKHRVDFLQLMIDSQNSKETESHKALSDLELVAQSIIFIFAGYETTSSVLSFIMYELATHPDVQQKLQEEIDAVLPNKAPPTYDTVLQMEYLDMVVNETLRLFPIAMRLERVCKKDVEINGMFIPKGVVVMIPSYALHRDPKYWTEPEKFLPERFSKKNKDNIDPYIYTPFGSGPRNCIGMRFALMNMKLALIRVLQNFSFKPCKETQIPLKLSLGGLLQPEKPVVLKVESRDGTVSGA
smiles,measurement,setting,value
"COc1c(C(=O)/C=C/c2cccnc2)c(O)c(OC)c2occc12 [Compound 8, 3-(4,7-dimethoxy-6-hydroxybenzofuran-5-yl)-1-(pyridin-3-yl)-3-oxopropene]",IC50,CYP3A4,3 µM
same,IC50,CYP1B1,265 nM
same,Inhibition of CYP2A6 at 20 μM,CYP2A6,No Inhibition
same,inhibition at 20 µM,CYP2C8,24%
same,IC50,CYP1A2,166 nM
same,IC50,CYP2D6,7 µM
same,inhibition at 20 µM,"CYP2D6; human, Saccharosomes containing CYP2D6, 20 μM",84%
same,inhibition at 20 µM,CYP2B6,15%

# — patent US20210284618A1, “FURANOCHALCONES AS INHIBITORS OF CYP1A1, CYP1A2 AND CYP1B1 FOR CANCER CHEMOPREVENTION” (Council of Scientific & Industrial Research, priority 2016, published 2021)
